In patent publication US20170246166A1, “1,2-BENZOTHIAZOLE COMPOUNDS FOR THE TREATMENT OF KIDNEY DISORDERS” (priority 2014, published 2017):

Assays:
PKC = test: Cell-based assay of PKC inhibition (PKC substrate phosphorylation in THP-1 cells); details: human THP-1 cells, 1.5 h compound, then 20 nM PMA for 30 min; read-out: absolute IC50, PKC substrate phosphorylation
Experimental: The purpose of this assay is to test the inhibitory effects of a test compound on PKC in a cell-based system by measuring the level of PKC substrate phosphorylation.
Staurosporin may be used as a positive control. It is prepared in DMSO to make up a […] solution and then serially diluted in plain RPMI 1640 culture medium (10 μM-0.0005 μM) to obtain a ten-point dilution curve. Test compounds are prepared in the same manner.
THP-1 cells (human macrophage cell line) are obtained from ATCC (ATCC TIB-202 lot 4028542). The cells are cultured in 96-well plates coated with poly-d-lysine (Becton Dickinson) with seeding density of 4000 cells/well in RPMI 1640 culture medium (Gibco) with 1% fetal bovine serum (Gibco). […]
After the incubation, the cells are first fixed in the Prefer fixative (ANATECH LTD) for 30 min at room temperature. […] Plates are scanned with an ACUMEN EXPLORER™ Laser-scanning fluorescence microplate cytometer (TTP LABTECH LTD), with 488 nm laser excitation to detect emission fluorescence at 655 nm-705 nm (emission of DNA bound propidium iodide) for cell counting/well, and emission of 505 nm-530 nm fluorescence of antibody binding to phosphorylated PKC substrates in cells. The main assay output is a ratio of total fluorescence of phosphorylated PKC substrates to total cell number (ratio=total intensity/total cell number). […]

[1] = tested on: persons with type 2 diabetes and nephropathy; details: in combination with an ACE inhibitor, ARB, or both; cited from earlier work

Row | SMILES | IC50 (PKC) [nM] | effects on albuminuria and renal function [1]
2 | CN(C)C[C@@H]1CCn2cc(c3ccccc32)C2=C(C(=O)NC2=O)c2cn(c3ccccc23)CCO1 [ruboxistaurin] | – | favorable effects on albuminuria and renal function
